Key:
[1] = molecular target: T1, beta-catenin/TCF4 engagement (Homo sapiens, UniProt P35222); test: Nano-BRET target engagement assay (B-cat-Halo & TCF4-Luc in HEK293 cells); format: cell-based; details: absolute IC50; read-out: NanoBRET Abs IC50
T1 construct: expressed in transfected cells; host or cells: HEK293
T1 sequence (P35222 1-781): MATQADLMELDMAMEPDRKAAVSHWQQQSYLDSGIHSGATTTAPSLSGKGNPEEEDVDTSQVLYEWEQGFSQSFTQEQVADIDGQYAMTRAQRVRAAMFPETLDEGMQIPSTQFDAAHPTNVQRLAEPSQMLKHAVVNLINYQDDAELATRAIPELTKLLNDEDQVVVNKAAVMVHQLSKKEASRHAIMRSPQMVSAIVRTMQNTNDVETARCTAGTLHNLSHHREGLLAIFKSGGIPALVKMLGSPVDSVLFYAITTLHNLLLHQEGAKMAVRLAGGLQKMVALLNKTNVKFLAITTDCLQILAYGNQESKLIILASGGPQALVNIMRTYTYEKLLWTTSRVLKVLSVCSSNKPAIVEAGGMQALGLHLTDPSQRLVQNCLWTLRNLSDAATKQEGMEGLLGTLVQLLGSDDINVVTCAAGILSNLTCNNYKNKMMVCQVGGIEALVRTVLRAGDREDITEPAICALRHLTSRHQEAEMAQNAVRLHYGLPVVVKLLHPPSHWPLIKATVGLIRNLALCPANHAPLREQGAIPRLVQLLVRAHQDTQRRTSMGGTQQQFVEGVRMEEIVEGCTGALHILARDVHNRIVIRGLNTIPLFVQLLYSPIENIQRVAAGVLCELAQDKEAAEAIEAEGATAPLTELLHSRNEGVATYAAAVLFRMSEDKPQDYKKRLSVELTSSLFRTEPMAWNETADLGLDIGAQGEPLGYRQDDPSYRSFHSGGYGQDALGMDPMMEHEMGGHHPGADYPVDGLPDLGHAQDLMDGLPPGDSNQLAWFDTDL

[2] = molecular target: T2, full-length beta-Catenin (Uniprot ID P35222) (Homo sapiens, UniProt P35222); test: Fluorescence polarization IC50 (beta-catenin / 5FAM-TCF4 10-53 competition); format: binding; details: fluorescence polarization; read-out: beta-Catenin FP IC50
T2 construct: 10 nM full-length beta-Catenin (Uniprot ID P35222)
T2 sequence (P35222 1-781): T1 sequence (P35222 1-781)

CC(=O)N1CCC[C@]12CC=CCCCC1(CCCC=CCCCOC(=O)N3CC[C@@](C(=O)N[C@@H](Cc4ccsc4)C(=O)N[C@@H](Cc4csc5ccccc45)C(=O)N[C@H](C(N)=O)[C@@H](C)O)(C3)NC(=O)[C@H](CC(C)C)NC(=O)[C@H](Cc3ccccc3)NC(=O)[C@H](C)NC(=O)[C@H](C)NC(=O)[C@H](CC(=O)O)NC(=O)[C@H](CC(=O)O)NC1=O)NC(=O)[C@H](CC(C)(C)C)NC(=O)[C@H](CC(=O)O)NC2=O (stereo partly drawn) [I-1494, Ac-PL3-Asp-Npg-B5-Asp-Asp-Ala-Ala-Phe-Leu-PyrS2-3Thi-BztA-Thr-NH2]
IC50 [1]: 14.7 µM | IC50 [2]: 0.005 µM

CC(=O)N1CCC[C@]12CC=CCCCC1(CCCC=CCCCOC(=O)N3CC[C@@](C(=O)N[C@@H](Cc4ccsc4)C(=O)N[C@@H](Cc4csc5ccccc45)C(=O)N[C@H](C(N)=O)C(C)C)(C3)NC(=O)[C@H](CC(C)C)NC(=O)[C@H](Cc3ccccc3)NC(=O)[C@H](C)NC(=O)[C@H](C)NC(=O)[C@H](CC(=O)O)NC(=O)[C@H](CC(=O)O)NC1=O)NC(=O)[C@H](CC(C)(C)C)NC(=O)[C@H](CC(=O)O)NC2=O (stereo partly drawn) [I-1495, Ac-PL3-Asp-Npg-B5-Asp-Asp-Ala-Ala-Phe-Leu-PyrS2-3Thi-BztA-Val-NH2]
IC50 [1]: 23.9 µM | IC50 [2]: 0.024 µM

CC(=O)N1CCC[C@]12CC=CCCCC1(CCCC=CCCCOC(=O)N3CC[C@@](C(=O)N[C@@H](Cc4ccsc4)C(=O)N[C@@H](Cc4csc5ccccc45)C(=O)N[C@@H](Cc4ccccc4)C(N)=O)(C3)NC(=O)[C@H](CC(C)C)NC(=O)[C@H](Cc3ccccc3)NC(=O)[C@H](C)NC(=O)[C@H](C)NC(=O)[C@H](CC(=O)O)NC(=O)[C@H](CC(=O)O)NC1=O)NC(=O)[C@H](CC(C)(C)C)NC(=O)[C@H](CC(=O)O)NC2=O (stereo partly drawn) [I-1496, Ac-PL3-Asp-Npg-B5-Asp-Asp-Ala-Ala-Phe-Leu-PyrS2-3Thi-BztA-Phe-NH2]
IC50 [1]: 9.4 µM | IC50 [2]: 0.051 µM

CC(=O)N1CCC[C@]12CC=CCCCC1(CCCC=CCCCOC(=O)N3CC[C@@](C(=O)N[C@@H](Cc4ccsc4)C(=O)N[C@@H](Cc4csc5ccccc45)C(=O)N[C@@H](Cc4c[nH]c5ccccc45)C(N)=O)(C3)NC(=O)[C@H](CC(C)C)NC(=O)[C@H](Cc3ccccc3)NC(=O)[C@H](C)NC(=O)[C@H](C)NC(=O)[C@H](CC(=O)O)NC(=O)[C@H](CC(=O)O)NC1=O)NC(=O)[C@H](CC(C)(C)C)NC(=O)[C@H](CC(=O)O)NC2=O (stereo partly drawn) [I-1497, Ac-PL3-Asp-Npg-B5-Asp-Asp-Ala-Ala-Phe-Leu-PyrS2-3Thi-BztA-Trp-NH2]
IC50 [1]: 11.4 µM | IC50 [2]: 0.05 µM

CC(=O)N1CCC[C@]12CC=CCCCC1(CCCC=CCCCOC(=O)N3CC[C@@](C(=O)N[C@@H](Cc4ccsc4)C(=O)N[C@@H](Cc4csc5ccccc45)C(=O)N[C@@H](CCO)C(N)=O)(C3)NC(=O)[C@H](CC(C)C)NC(=O)[C@H](Cc3ccccc3)NC(=O)[C@H](C)NC(=O)[C@H](C)NC(=O)[C@H](CC(=O)O)NC(=O)[C@H](CC(=O)O)NC1=O)NC(=O)[C@H](CC(C)(C)C)NC(=O)[C@H](CC(=O)O)NC2=O (stereo partly drawn) [I-1499, Ac-PL3-Asp-Npg-B5-Asp-Asp-Ala-Ala-Phe-Leu-PyrS2-3Thi-BztA-Hse-NH2]
IC50 [1]: 6.4 µM | IC50 [2]: 0.023 µM

CC(=O)N1CCC[C@]12CC=CCCCC1(CCCC=CCCCOC(=O)N3CC[C@@](C(=O)N[C@@H](Cc4ccsc4)C(=O)N[C@@H](Cc4csc5ccccc45)C(=O)N[C@H](CCC(N)=O)C(N)=O)(C3)NC(=O)[C@H](CC(C)C)NC(=O)[C@H](Cc3ccccc3)NC(=O)[C@H](C)NC(=O)[C@H](C)NC(=O)[C@H](CC(=O)O)NC(=O)[C@H](CC(=O)O)NC1=O)NC(=O)[C@H](CC(C)(C)C)NC(=O)[C@H](CC(=O)O)NC2=O (stereo partly drawn) [I-1500, Ac-PL3-Asp-Npg-B5-Asp-Asp-Ala-Ala-Phe-Leu-PyrS2-3Thi-BztA-dGln-NH2]
IC50 [1]: 4.7 µM | IC50 [2]: 0.022 µM

CC(=O)N1CCC[C@]12CC=CCCCC1(CCCC=CCCCOC(=O)N3CC[C@@](C(=O)N[C@@H](Cc4ccsc4)C(=O)N[C@@H](Cc4csc5ccccc45)C(=O)N[C@@H](CCC(N)=O)C(N)=O)(C3)NC(=O)[C@H](CC(C)C)NC(=O)[C@H](Cc3ccccc3)NC(=O)[C@H](CCCN3CCOCC3)NC(=O)[C@H](C)NC(=O)[C@H](CC(=O)O)NC(=O)[C@H](CC(=O)O)NC1=O)NC(=O)[C@H](CC(C)(C)C)NC(=O)[C@H](CC(=O)O)NC2=O (stereo partly drawn) [I-1501, Ac-PL3-Asp-Npg-B5-Asp-Asp-Ala-MorphNva-Phe-Leu-PyrS2-3Thi-BztA-Gln-NH2]
IC50 [1]: > 20 µM | IC50 [2]: 0.046 µM

CC(=O)N1CCC[C@]12CC=CCCCC1(CCCC=CCCCOC(=O)N3CC[C@@](C(=O)N[C@@H](Cc4ccsc4)C(=O)N[C@@H](Cc4csc5ccccc45)C(=O)N[C@@H](CCC(N)=O)C(N)=O)(C3)NC(=O)[C@H](CC(C)C)NC(=O)[C@H](Cc3ccccc3)NC(=O)[C@H](CCCN3CCC(F)(F)CC3)NC(=O)[C@H](C)NC(=O)[C@H](CC(=O)O)NC(=O)[C@H](CC(=O)O)NC1=O)NC(=O)[C@H](CC(C)(C)C)NC(=O)[C@H](CC(=O)O)NC2=O (stereo partly drawn) [I-1502, Ac-PL3-Asp-Npg-B5-Asp-Asp-Ala-F2PipNva-Phe-Leu-PyrS2-3Thi-BztA-Gln-NH2]
IC50 [1]: > 20 µM | IC50 [2]: 0.034 µM

CC(=O)N1CCC[C@]12CC=CCCCC1(CCCC=CCCCOC(=O)N3CC[C@@](C(=O)N[C@@H](Cc4ccsc4)C(=O)N[C@@H](Cc4csc5ccccc45)C(=O)N[C@@H](CCC(N)=O)C(N)=O)(C3)NC(=O)[C@H](CC(C)C)NC(=O)[C@H](Cc3ccccc3)NC(=O)[C@H](CCN3CCOCC3)NC(=O)[C@H](C)NC(=O)[C@H](CC(=O)O)NC(=O)[C@H](CC(=O)O)NC1=O)NC(=O)[C@H](CC(C)(C)C)NC(=O)[C@H](CC(=O)O)NC2=O (stereo partly drawn) [I-1504, Ac-PL3-Asp-Npg-B5-Asp-Asp-Ala-MorphAbu-Phe-Leu-PyrS2-3Thi-BztA-Gln-NH2]
IC50 [1]: > 20 µM | IC50 [2]: 0.046 µM

CC(=O)N1CCC[C@]12CC=CCCCC1(CCCC=CCCCOC(=O)N3CC[C@@](C(=O)N[C@@H](Cc4ccsc4)C(=O)N[C@@H](Cc4csc5ccccc45)C(=O)N[C@@H](CCC(N)=O)C(N)=O)(C3)NC(=O)[C@H](CC(C)C)NC(=O)[C@H](Cc3ccccc3)NC(=O)[C@H](CCN3CCC(F)(F)CC3)NC(=O)[C@H](C)NC(=O)[C@H](CC(=O)O)NC(=O)[C@H](CC(=O)O)NC1=O)NC(=O)[C@H](CC(C)(C)C)NC(=O)[C@H](CC(=O)O)NC2=O (stereo partly drawn) [I-1505, Ac-PL3-Asp-Npg-B5-Asp-Asp-Ala-F2PipAbu-Phe-Leu-PyrS2-3Thi-BztA-Gln-NH2]
IC50 [1]: > 20 µM | IC50 [2]: 0.039 µM

CC(=O)N1CCC[C@]12CC=CCCCC1(CCCC=CCCCOC(=O)N3CC[C@@](C(=O)N[C@@H](Cc4ccsc4)C(=O)N[C@@H](Cc4csc5ccccc45)C(=O)N[C@@H](CCC(N)=O)C(N)=O)(C3)NC(=O)[C@H](CC(C)C)NC(=O)[C@H](Cc3ccccc3)NC(=O)[C@H](CC(=O)N3CCOCC3)NC(=O)[C@H](C)NC(=O)[C@H](CC(=O)O)NC(=O)[C@H](CC(=O)O)NC1=O)NC(=O)[C@H](CC(C)(C)C)NC(=O)[C@H](CC(=O)O)NC2=O (stereo partly drawn) [I-1507, Ac-PL3-Asp-Npg-B5-Asp-Asp-Ala-MorphAsn-Phe-Leu-PyrS2-3Thi-BztA-Gln-NH2]
IC50 [1]: > 20 µM | IC50 [2]: 0.03 µM

CC(=O)N1CCC[C@]12CC=CCCCC1(CCCC=CCCCOC(=O)N3CC[C@@](C(=O)N[C@@H](Cc4ccsc4)C(=O)N[C@@H](Cc4csc5ccccc45)C(=O)N[C@@H](CCO)C(N)=O)(C3)NC(=O)[C@H](CC(C)C)NC(=O)[C@H](Cc3ccccc3)NC(=O)[C@H](C)NC(=O)[C@H](C)NC(=O)[C@H](CC(=O)O)NC(=O)[C@H](CC(=O)O)NC1=O)NC(=O)[C@H](Cc1ccccc1)NC(=O)[C@H](CC(=O)O)NC2=O (stereo partly drawn) [I-1510, Ac-PL3-Asp-Phe-B5-Asp-Asp-Ala-Ala-Phe-Leu-PyrS2-3Thi-BztA-Hse-NH2]
IC50 [1]: 31.8 µM | IC50 [2]: 0.01 µM

CC(=O)N1CCC[C@]12CC=CCCCC1(CCCC=CCCCOC(=O)N3CC[C@@](C(=O)N[C@@H](Cc4ccsc4)C(=O)N[C@@H](Cc4csc5ccccc45)C(=O)N[C@@H](CCC(N)=O)C(N)=O)(C3)NC(=O)[C@H](CC(C)C)NC(=O)[C@H](Cc3ccccc3)NC(=O)[C@H](C)NC(=O)[C@H](C)NC(=O)[C@H](CC(=O)O)NC(=O)[C@H](CC(=O)O)NC1=O)NC(=O)[C@H](Cc1ccc(O)cc1)NC(=O)[C@H](CC(=O)O)NC2=O (stereo partly drawn) [I-1511, Ac-PL3-Asp-Tyr-B5-Asp-Asp-Ala-Ala-Phe-Leu-PyrS2-3Thi-BztA-Gln-NH2]
IC50 [1]: > 20 µM | IC50 [2]: 0.005 µM

CC(=O)N1CCC[C@]12CC=CCCCC1(CCCC=CCCCOC(=O)N3CC[C@@](C(=O)N[C@@H](Cc4ccsc4)C(=O)N[C@@H](Cc4csc5ccccc45)C(=O)N[C@@H](CCO)C(N)=O)(C3)NC(=O)[C@H](CC(C)C)NC(=O)[C@H](Cc3ccccc3)NC(=O)[C@H](C)NC(=O)[C@H](C)NC(=O)[C@H](CC(=O)O)NC(=O)[C@H](CC(=O)O)NC1=O)NC(=O)[C@H](Cc1ccc(O)cc1)NC(=O)[C@H](CC(=O)O)NC2=O (stereo partly drawn) [I-1512, Ac-PL3-Asp-Tyr-B5-Asp-Asp-Ala-Ala-Phe-Leu-PyrS2-3Thi-BztA-Hse-NH2]
IC50 [1]: > 20 µM | IC50 [2]: 0.012 µM

Reference: patent publication US20240116985A1, “STAPLED PEPTIDES AND METHODS THEREOF” (priority 2020, published 2024)
